Data published in patent publication US20170314056A1, “METHOD OF USING NEAR INFRARED FLUORESCENT DYES FOR IMAGING AND TARGETING CANCERS” (priority 2010, published 2017).
“Also recorded” adds a separate entry of the source.

How the values were obtained:
[1] = system: human cancer cells; assay: Uptake of NIR dyes by cultured human cancer cell lines (confocal NIR imaging); assay type: cell-based; settings: for uptake of dye by human cancer cell lines in culture: panel of prostate, breast, cervical, lung, liver, pancreatic, renal, bladder and leukemia lines, confocal microscope
Protocol: (§1) Cells (1×10^4/well) were seeded on vitronectin-coated four-well chamber slides (Nalgen Nunc, Naperville, Ill.) and incubated with T-medium containing 5% FBS for 24 h. After the cells had attached to the chamber slides, the cells were washed with PBS (Phosphate Buffered Saline) and exposed to the cyanine dye at a concentration of 20 μM in T-medium. The slides were incubated at 37° C. for 30 min, washed twice with PBS to remove excess dyes, and cells were fixed with 10% formaldehyde at 4° C. The slides were then washed twice with PBS and covered with glass coverslips with an aqueous mounting medium (Sigma-Aldrich, St. Louis, Mo.). Images were recorded by confocal laser microscopy (Zeiss LSM 510 META, Germany) using a 633 nm excitation laser and 670-810 nm long pass filter, or a fluorescence microscope (Olympus 1×71; Olympus, Melville, N.Y.) equipped with a 75 W Xenon lamp and an Indo-Cyanine Green filter cube (excitation 750-800 nm; emission 820-860 nm) (Chroma, Rockingham, Vt.).
(§2) Cells (1×10^4/well) were seeded on vitronectin-coated four-well chamber slides (Nalgen Nunc, Naperville, Ill.) and incubated with T-medium containing 5% FBS for 24 h. After the cells had attached to the chamber slides, the cells were washed with PBS (Phosphate Buffered Saline) and exposed to the cyanine dye at a concentration of 20 μM in medium. The slides were incubated at 37° C. for 30 min, washed twice with PBS to remove excess dyes, and fixed with 10% formaldehyde at 4° C. The slides were then washed twice with PBS and covered with glass coverslips with aqueous mounting medium (Sigma-Aldrich, St. Louis, Mo.). Images were recorded by confocal laser microscopy (Zeiss LSM 510 META, Germany) equipped with 633 nm excitation laser and 670-810 nm long pass filter.

[2] = system: normal human cells; assay: Uptake of NIR dyes by cultured normal human cells; assay type: cell-based; settings: HS-27A/BMC, NPE, NPF, HUVEC-CS, HEK293; 20 μM dye, 30 min
Protocol: as §1, §2

[3] = system: human tumor xenografts; assay: NIR imaging of human tumor xenografts in live mice; settings: for tumor imaging of subcutaneous xenografts: Kodak multimodal-imaging system; for dye uptake and signal in human xenograft implants at various sites: subcutaneous, orthotopic or intraosseous tumors, i.p. or i.v. dye; for duration of dye uptake and retention in tumors after dye administration: tumors in live mice
Description: […] After variable time of the dye injection, the mice were anesthetized and imaged by using the Kodak animal in vivo imaging system, which can obtain both the NIR signal and the X-ray picture and these images were merged. […] IR-783 uptake into metastatic human prostate tumors was studied in ARCaP model.
Uptake and accumulation of cyanine dyes in tumors in live mice Human cancer cells were implanted (1×10^6) either subcutaneously, orthotopically, or intraosseously into 4 to 6 week old athymic nude mice (National Cancer Institute, Frederick, Md.) according to our previously published procedures (26, 27). All animal studies were conducted under the Emory University Animal Care and Use Committee guidelines. […] Whole body optical imaging was taken at 24 h using a Kodak Imaging Station 4000 MM (New Haven, Conn.) equipped with fluorescent filter sets (excitation/emission, 800/850 nm). The field of view (FOV) was 120 mm in diameter. The frequency rate for NIR excitation light was 2 mW/cm^2. The camera settings included maximal gain, 2×2 binning, 1024×1024 pixel resolution, and an exposure time of 5 sec. In some instances, live mice were also imaged by an Olympus OV100 Whole Mouse Imaging System (excitation 762 nm; emission 800 nm) (Olympus Corp., Tokyo, Japan), containing a MT-20 light source (Olympus Biosystems, Planegg, Germany) and DP70 CCD camera (Olympus). Prior to imaging, mice were anesthetized with ketamine (75 mg/kg). During imaging, mice were maintained in an anesthetized state.
Human renal cancer cells (ACHN and SN12C) were implanted (1×10^6) subcutaneously and intraosseously into 4 to 6 week old athymic nude mice, respectively. And, we also implanted Caki-1 cells into the renal capsule of athymic nude mice to establish subrenal capsule xenografts of renal cancer as previously described.^70 When tumor sizes reached between 1-6 mm in diameter, as assessed by X-ray or by palpation, mice were […] Whole body optical imaging was taken at 24 h using a Kodak Imaging Station Imaging System 4000 MM (New Haven, Conn.) equipped with fluorescent filter sets (excitation/emission, 800/850 nm). The field of view (FOV) was 120 mm in diameter. The frequency rate for NIR excitation light was 2 mW/cm^2. The camera settings included maximal gain, 2×2 binning, 1024×1024 pixel resolution, and an exposure time of 5 sec. After whole body NIR imaging, the dissected organs and tumors were subjected to ex vivo imaging. Prior to imaging, mice were anesthetized with ketamine (75 mg/kg). During imaging, mice were maintained in an anesthetized state.

[4] = system: Apc^Min/+ mouse adenoma; assay: Detection of intestinal neoplasia in Apc^Min/+ mice; assay type: in vivo; settings: IR-783 i.p. 10 nmol/20 g
Protocol: The uptake of cyanine dyes by the TRAMP mouse prostate model and the Apc^Min/+ mouse-adenoma model (obtained from The Jackson Laboratory, Bar Harbor, Me.) was assessed by a similar protocol as described above. We also utilized the Olympus OV100 imaging system to detect adenoma in the Apc^Min/+ mouse model. In brief, mice were injected intraperitoneally with IR-783 dye at a dose of 10 nmol/20 g body weight and animals were subjected to total body cyanine dye imaging as described above. Animals were sacrificed at 48 hrs after dye administration and tumors were dissected and subjected to NIR imaging. The presence of tumor cells in tissue specimens was confirmed by histopathologic analysis.

[5] = Systemic toxicity of IR-783 in C57BL/6 mice; assay type: in vivo, mouse; settings: normal C57BL/6 mice
Protocol: The systemic toxicity of IR-783 was investigated in C57BL/6 mice (National Cancer Institute, Frederick, Md.) by injecting the dye by an i.p. route. The mice (N=8 per group) were subdivided into 4 groups and received PBS as control and IR-783 i.p. injection daily at the following doses: 0.375 mg/kg (imaging dose), 3.75 mg/kg and 37.5 mg/kg. […] The histomorphologic appearance of their vital organs was assessed at the time of sacrifice.

[6] = system: human renal tumor tissues; assay: In vitro fluorescence imaging of freshly harvested human renal tumor tissues; assay type: cell-based; settings: fresh nephrectomy specimens; 20 µM dye, 37° C., 30 minutes
Protocol: Kidney tumor tissue samples were collected from 5 patients immediately after tumor nephrectomy according to an Emory approved IRB protocol. All 5 patients had histologically confirmed renal cell carcinoma of the clear cell type. The tissues were excised from tumor area, normal area and the area of tumor and normal adjacent on the kidney removed. All above procedures were conducted on ice and the excised tissues were stored at 4° C. Each incised tissue was cut into three pieces and were incubated with 20 µM IR-783 dye, 20 µM IR-780 and PBS, respectively, at 37° C. for 30 minutes. The dye solutions were removed and the tissues were washed five times by PBS. Optical imaging was done using Kodak Imaging Station Imaging System (see above).
To determine dye uptake in tissues, tissues cut from incised kidney samples (described above) tumor were placed in OTC medium and frozen at −80° C. These frozen tissues were retrieved for histopathologic sections cut to 5 Lm thickness for pathologic observation under a confocal microscope as described above.

[7] = system: human renal cancer cells (SN12C); assay: Detection of renal cancer cells in blood by NIR imaging and flow cytometry; assay type: cell-based; settings: SN12C cells spiked into whole blood; 20 μM IR-783
Protocol: Citrated whole mouse blood samples were collected from same inbred athymic nude mice. A known number of human renal cancer cells (SN12C) were added into 3 ml whole mouse blood, and mixed gently with 20 μM IR-783 and incubated for 30 minutes at 37° C. The mononuclear cells and cancer cells were recovered by gradient centrifugation using Histopaque-1077 (Sigma, St. Louis, Mo.) and then diluted with 0.5 ml of 1% paraformaldehyde to inhibit further activation. A sample incubated with PBS served as negative isotype control. The isolated live cells were observed under a Leica TCS SP confocal microscope (Leica Microsystems, Heidelberg, Germany) and samples were excited with 670 nm. All samples were analyzed within 1 hrs of collection in a Becton Dickinson LSRII flow cytometer (Becton Dickinson Biosciences, San Jose, Calif.) with a red laser diode (640 nm) for excitation and cy7 detector for detection and with LYSIS II software.

[8] = mice bearing subcutaneous ACHN tumors

## 2-[2-[2-Chloro-3-[2-[1,3-dihydro-3,3-dimethyl-1-(4-sulfobutyl)-2H-indol-2-ylidene]-ethylidene]-1-cyclohexen-1-yl]-ethenyl]-3,3-dimethyl-1-(4-sulfobutyl)-3H-indolium [IR-783]
[1]
  uptake of dye by human bladder cancer cell lines: strong uptake
  uptake of dye by human pancreatic cancer cell lines: strong uptake
[1]; data not shown
  dye uptake into cancer cells at 0° C.: no dye uptake and none
[1]; 37° C., data not shown
  dye uptake into cancer cells at 37° C.: high
[1]; SN12C, ACHN, Caki-1, 20 μM dye, 30 min
  uptake of dye by human renal cancer cells: significant uptake; also recorded: actively taking up
[1]; 20 μM dye, 30 min
  uptake of dye by human cancer cell lines in culture: preferentially taken up and retained by cancer but not normal cells; also recorded: a wide range of cancer cells but not normal cells were taking up these dyes; also recorded: retained in cancerous cells of human origin; also recorded: significant uptake
[2]
  uptake of dye by normal human cells in culture: unable to be taken up by normal cells; also recorded: not to accumulate; also recorded: not taken up; also recorded: low uptake; also recorded: very low uptake
[3]; 5 nmol dye through tail vein
  tumor imaging of subcutaneous xenografts: clear tumor images can be detected
[3]; metastatic prostate tumors (ARCaP orthotopic) in mice
  time after dye at which optimal images of tumors and metastases are obtained: 24 to 48 h
[3]; [8]
  signal in tumor specimens, ex vivo analysis: higher signals in tumor specimens
  signals in other normal organs, ex vivo analysis: very low signals
[3]; orthotopic ARCaPM (ARCaP) tumors in mice
  dye uptake by orthotopic ARCaPM tumors: strong uptake; also recorded: active uptake; also recorded: dye uptake and retention seen in an ARCaPM orthotopic tumor
[3]; subcutaneous renal tumors (ACHN), Kodak System
  tumor signal in whole-body NIR imaging: signals could be clearly visualized in the tumors
[3]
  dye uptake and signal in human xenograft implants at various sites: found in a broad spectrum of human xenograft implants; also recorded: intense signals were clearly associated with the tumors; also recorded: both tumors were detected
  duration of dye uptake and retention in tumors after dye administration: up to 15 days
[3]; subrenal capsule (Caki-1) and intraosseous (SN12C) renal tumor xenografts
  signal at anatomical sites of implanted tumors: strong signals
[3]; tumors in mice
  size of tumors that can be imaged: approximately 1 mm^3
  tumor weight that can be imaged: approximately 1 mg
[4]
  detection of tumor (adenoma): could detect tumor
[5]
  effect on body weights: did not affect body weights
  histopathology of vital organs at the time of sacrifice: No abnormal histopathology
[5]; i.p. daily 0.375, 3.75 and 37.5 mg/kg, one month
  systemic toxicity: no systemic toxicity
[6]
  dye uptake in human renal tumor tissue: can be taken up; also recorded: significant uptake; also recorded: strong IR-783 uptake
  dye uptake in normal kidney tissue: substantial low uptake; also recorded: undetectable; also recorded: not in normal kidney tissues
  signal in tumor tissues compared with IR-780 and PBS: stronger signals in tumor tissues than the IR-780 and PBS group
[7]
  flow cytometry discrimination of stained cancer cells: totally identified from normal lymphocytes
  visualization of cancer cells in blood under NIR imaging: clearly visualized

## CCCN1C(=CC=C2CCCC(C=CC3=[N+](CCC)c4ccccc4C3(C)C)=C2Cl)C(C)(C)c2ccccc21.[I-] [IR-780, 2-[2-[2-Chloro-3-[(1,3-dihydro-3,3-dimethyl-1-propyl-2H-indol-2-ylidene)ethylidene]-1-cyclohexen-1-yl]ethenyl]-3,3-dimethyl-1-propylindolium iodide]
[1]; data not shown
  dye uptake into cancer cells at 0° C.: no dye uptake
[1]; 20 μM dye, 30 min
  uptake of dye by human cancer cell lines in culture: preferentially taken up and retained by cancer but not normal cells; also recorded: a wide range of cancer cells but not normal cells were taking up these dyes; also recorded: significant uptake
[2]
  uptake of dye by normal human cells in culture: unable to be taken up by normal cells; also recorded: very low uptake
[3]; 5 nmol dye through tail vein
  tumor imaging of intratibial ARCaPM tumors: clear tumor images can be detected
  tumor imaging of subcutaneous xenografts: clear tumor images can be detected in all subcutaneous tumors
[3]
  dye uptake and signal in human xenograft implants at various sites: found in a broad spectrum of human xenograft implants
  duration of dye uptake and retention in tumors after dye administration: ≤ 15 days
